Measurements reported in patent US5455242A, “Carboxyalkyl tricyclic derivatives useful as inhibitors of enkephalinase and ace” (Merrell Dow Pharmaceuticals Inc., priority 1993, dated 1995).

Molecular target: T1, Enkephalinase (Rattus norvegicus, UniProt P07861)
T1 construct: Enkephalinase is partially purified from rat kidney; from tissue; host or cells: rat kidney (microvilli fraction)
T1 sequence (P07861 1-750): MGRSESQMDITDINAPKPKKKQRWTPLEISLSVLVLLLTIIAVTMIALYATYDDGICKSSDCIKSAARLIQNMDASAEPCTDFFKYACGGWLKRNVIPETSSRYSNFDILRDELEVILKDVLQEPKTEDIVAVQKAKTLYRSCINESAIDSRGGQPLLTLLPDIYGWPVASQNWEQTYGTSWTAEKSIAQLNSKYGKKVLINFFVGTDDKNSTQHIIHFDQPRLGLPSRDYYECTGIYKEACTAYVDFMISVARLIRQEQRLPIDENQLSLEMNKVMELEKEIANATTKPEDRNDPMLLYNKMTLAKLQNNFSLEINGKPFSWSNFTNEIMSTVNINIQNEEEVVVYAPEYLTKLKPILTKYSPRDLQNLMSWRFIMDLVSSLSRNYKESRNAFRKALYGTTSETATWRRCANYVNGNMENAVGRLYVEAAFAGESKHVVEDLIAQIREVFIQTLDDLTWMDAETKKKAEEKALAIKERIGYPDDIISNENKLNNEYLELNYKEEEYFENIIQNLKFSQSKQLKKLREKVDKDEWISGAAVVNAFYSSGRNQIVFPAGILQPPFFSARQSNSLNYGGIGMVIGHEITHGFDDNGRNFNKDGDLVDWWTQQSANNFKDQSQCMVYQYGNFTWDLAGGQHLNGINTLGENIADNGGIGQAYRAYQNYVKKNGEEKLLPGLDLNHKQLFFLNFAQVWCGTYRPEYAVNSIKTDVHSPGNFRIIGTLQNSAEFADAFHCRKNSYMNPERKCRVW
Assay: Enkephalinase inhibition (fluorometric assay, enzyme partially purified from rat kidney)
Assay type: biochemical
Conditions: 50 mM HEPES pH 7.4, 25° C., 12 μM dansyl-D-AlaGly(p-nitro)PheGly
Source text: Enkephalinase is partially purified from rat kidney. The enzyme is extracted from the microvilli fraction by using Triton X-100 according to the method of Malfroy and Schwartz [J. Biol. Chem. 259, 14365-14370 (1984)]or by using a proteolytic treatment according to the method of Almenoff and Orlowski [Biochem. 22, 590-599 (1983)]. The enzyme is further purified by anion exchange chromatography (Mono Q™ column, Pharmacia) using a Pharmacia FPLC system. The enzyme activity may be measured by the fluorometric methods of Florentin et al. [Anal. Biochem. 141, 62-69 (1984)]or of Almenoff and Orlowski [J. Neurochemistry 42, 151-157 (1984)]. The enzyme is assayed in 50 mM HEPES buffer (pH 7.4) in a 3.0 mL reaction volume containing 12 μM of the substrate dansyl-D-AlaGly(p-nitro)PheGly(Km =40 μM) at 25° C. The substrate (and inhibitor) is added from a concentrated stock solution in DMSO (up to 0.1 mL DMSO final volume). The enzyme in a small volume (approximately 0.1 μg of FPLC purified protein) is added to initiate the reaction and the rate of fluorecense increase is recorded continuously using a fluorometer (excitation at 339 nm, emission at 562 nm).

Ki: 5 nM
SMILES: O=C(O)CC(Cc1ccccc1)C(=O)N[C@H]1Cc2ccccc2[C@H]2CCC[C@@H](C(=O)O)N2C1=O (stereo partly drawn) [101,287, [4S-[4α, 7α(R*), 12bβ]]-7-[(1-Oxo-2-carboxymethyl-3-phenylpropyl)amino]-1,2,3,4,6,7,8,12b-octahydro-6-oxopyrido[2,1-a][2]benzazepine-4-carboxylic acid]
